From US9642889B2, “Macrocyclic inhibitors of Flaviviridae viruses” (Selcia Limited, priority 2012, dated 2017)
Where two headings read alike, the source gives them in different places.

What was measured:
[1] = rcm bond; 22-membered ring; Hoveyda-Grubbs II; 1,2-dichloroethane; 3.01 mM; 80.0 °C; 2 steps
[2] = rcm bond; 22-membered ring; Hoveyda-Grubbs II; 1,2-dichloroethane; 80.0 °C
cyclophilin A = cyclophilin A (Homo sapiens, UniProt P62937); test: Cyclophilin A TR-FRET competitive binding assay; conditions: competition with CsA-Cy5 for His-tagged CypA, two-hour incubation
Method: Cyclophilin A TR-FRET Competitive Binding Assay
Inhibitor potency was measured using a competitive binding assay with a time-resolved fluorescence resonance energy transfer (TR-FRET) readout. […] An IC50 value was calculated using a four-parameter logistic fit.

[3] = test system: Huh-7 HCV replicon cells (1b replicon); test: anti-HCV activity in Huh-7 cell line harboring a HCV replicon (luciferase readout); type: cell-based; conditions: Hepatitis C virus; for EC50: Huh-7, 72 h, inhibition of viral replication, Huh-7 HCV replicon cells, 3 days, read-out: EC50; for inhibition at 1 µM: Huh-7, read-out: Replicon 1b % inhibition at 1 μM, 1b replicon, 1 μM compound

cyclophilin A, sequence (P62937 whole entry, species assumed): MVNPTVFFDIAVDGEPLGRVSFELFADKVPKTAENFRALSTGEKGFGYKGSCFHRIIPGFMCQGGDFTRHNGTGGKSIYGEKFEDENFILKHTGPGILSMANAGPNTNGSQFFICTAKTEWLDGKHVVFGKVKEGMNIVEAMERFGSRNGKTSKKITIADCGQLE

| Compound | IC50 (cyclophilin A) [nM] | EC50 [3] [nM] | inhibition at 1 µM [3] [%] | other results |
| --- | --- | --- | --- | --- |
| CC(C)[C@@H]1OC(=O)[C@H](C)[C@H](O[Si](C)(C)C(C)(C)C)CC/C=C/c2cccc(c2)[C@@H](C)NC(=O)[C@@H]2CCCN(N2)C(=O)[C@H](C)NC1=O | – | – | – | ring closure, isolated yield [1]: 16%; ring closure, yield of all isomers (from C=CCC[C@@H](O[Si](C)(C)C(C)(C)C)[C@@H](C)C(=O)O[C@H](C(=O)N[C@@H](C)C(=O)N1CCC[C@@H](C(=O)N[C@H](C)c2cccc(C=C)c2)N1)C(C)C, rcm bond, Hoveyda-Grubbs 2nd generation catalyst, 1,2-dichloroethane, 3.01 mM, 80.0 °C, 2.0 h, 2 steps): 16% |
| CC(C)[C@@H]1OC(=O)C(C)(C)CC=Cc2cc3cc(ccc3cn2)[C@@H](C)NC(=O)[C@@H]2CCCN(N2)C(=O)[C@H](C)NC1=O | – | – | – | ring closure, yield of all isomers (from C=CCC(C)(C)C(=O)O[C@H](C(=O)N[C@@H](C)C(=O)N1CCC[C@@H](C(=O)N[C@H](C)c2ccc3cnc(C=C)cc3c2)N1)C(C)C, rcm bond, Hoveyda-Grubbs 2nd generation catalyst, toluene, 3.08 mM, 110.0 °C, 3.0 h): 15% |
| CC(C)[C@@H]1OC(=O)CC=Cc2cc3cc(ccc3cn2)[C@@H](C)NC(=O)[C@@H]2CCCN(N2)C(=O)[C@H](C)NC1=O | – | – | – | ring closure, yield of all isomers (from C=CCC(=O)O[C@H](C(=O)N[C@@H](C)C(=O)N1CCC[C@@H](C(=O)N[C@H](C)c2ccc3cnc(C=C)cc3c2)N1)C(C)C, rcm bond, Hoveyda-Grubbs 2nd generation, toluene, 2.83 mM, 110.0 °C, 5.0 h): 1% |
| CCC[C@@H]1CC=Cc2cc3cc(ccc3cn2)[C@@H](C)NC(=O)[C@@H]2CCCN(N2)C(=O)[C@H](C)NC(=O)[C@H](C(C)C)OC1=O | – | – | – | ring closure, yield of all isomers (from C=CC[C@@H](CCC)C(=O)O[C@H](C(=O)N[C@@H](C)C(=O)N1CCC[C@@H](C(=O)N[C@H](C)c2ccc3cnc(C=C)cc3c2)N1)C(C)C, rcm bond, Hoveyda-Grubbs 2nd generation, toluene, 3.02 mM, 110.0 °C, 3.5 h): 6% |
| CO[C@@H]1C=Cc2cc3cc(ccc3cn2)[C@@H](C)NC(=O)[C@@H]2CCCN(N2)C(=O)[C@H](C)NC(=O)[C@H](C(C)C)OC(=O)[C@@H]1C | – | – | – | ring closure, yield of all isomers (from C=Cc1cc2cc([C@@H](C)NC(=O)[C@@H]3CCCN(C(=O)[C@H](C)NC(=O)[C@@H](OC(=O)[C@H](C)[C@@H](/C=C/C)OC)C(C)C)N3)ccc2cn1, rcm bond, Hoveyda-Grubbs 2nd generation, toluene, 2.98 mM, 125.0 °C, 6.0 h): 1% |
| CC(C)[C@@H]1NCCCC=Cc2cc3cc(ccc3cn2)[C@@H](C)OC(=O)[C@@H]2CCCN(N2)C(=O)[C@H](C)NC1=O | – | – | – | ring closure, yield of all isomers (from C=CCCCN[C@H](C(=O)N[C@@H](C)C(=O)N1CCC[C@@H](C(=O)O[C@H](C)c2ccc3cnc(C=C)cc3c2)N1)C(C)C, rcm bond, Hoveyda-Grubbs 2nd generation catalyst, toluene, 2.97 mM, 110.0 °C, 1.25 h): 56% |
| CC(C)[C@@H]1OCCCC=Cc2cc3cc(ccc3cn2)[C@@H](C)OC(=O)[C@@H]2CCCN(N2)C(=O)[C@H](C)NC1=O | – | – | – | ring closure, yield of all isomers (from C=CCCCO[C@H](C(=O)N[C@@H](C)C(=O)N1CCC[C@@H](C(=O)O[C@H](C)c2ccc3cnc(C=C)cc3c2)N1)C(C)C, rcm bond, Hoveyda-Grubbs 2nd Generation Catalyst, toluene, 3.0 mM, 100.0 °C, 0.58 h): 35% |
| CO[C@H]1CC[C@@]2(/C=C/c3ccc4ccc(nc4c3)[C@@H](C)NC(=O)[C@@H]3CCCN(N3)C(=O)[C@H](C)NC(=O)[C@H](C(C)C)OC2=O)CC1 | – | – | – | ring closure, yield of all isomers (from CO[C@H]1CC[C@](/C=C/c2ccc3ccc([C@@H](C)N)nc3c2)(C(=O)O[C@H](C(=O)N[C@@H](C)C(=O)N2CCC[C@@H](C(=O)O)N2)C(C)C)CC1, amide bond, HATU/DIPEA, DCM, 4 steps): 6.2% |
| CO[C@@H]1CCC=Cc2cccc(c2)[C@@H](C)NC(=O)[C@@H]2CCCN(N2)C(=O)[C@H](C)NC(=O)[C@H](C(C)C)OC(=O)[C@@H]1C | – | – | – | ring closure, yield of all isomers (from C=CCC[C@@H](OC)[C@@H](C)C(=O)O[C@H](C(=O)N[C@@H](C)C(=O)N1CCC[C@@H](C(=O)N[C@H](C)c2cccc(C=C)c2)N1)C(C)C, rcm bond, Hoveyda-Grubbs 2nd generation, 1,2-dichloroethane, 2.96 mM, 85.0 °C, 5.0 h): 32% |
| CC(C)[C@@H]1NS(=O)(=O)CC=Cc2cc3cc(ccc3cn2)[C@@H](C)OC(=O)[C@@H]2CCCN(N2)C(=O)[C@H](C)NC1=O | – | – | – | ring closure, yield of all isomers (from C=CCS(=O)(=O)N[C@H](C(=O)N[C@@H](C)C(=O)N1CCC[C@@H](C(=O)O[C@H](C)c2ccc3cnc(C=C)cc3c2)N1)C(C)C, rcm bond, Hoveyda-Grubbs 2nd Generation Catalyst, toluene, 5.0 mM, 110.0 °C, 2.0 h): 13% |
| CC(C)[C@@H]1OC(=O)CCCC/C=C/c2cccc(c2)[C@@H](C)NC(=O)[C@@H]2CCCN(N2)C(=O)[C@H](C)NC1=O [Compound 8, (E)-(2R,5S,11S,14S)-14-Isopropyl-2,11-dimethyl-15-oxa-3,9,12,28-tetraaza-tricyclo[21.3.1.1*5,9*]octacosa-1 (27),21,23,25-tetraene-4,10,13,16-tetraone] | < 100 | < 1000 | 95 | ring closure, yield after HPLC [2]: 15%; ring closure, yield of all isomers (from C=CCCCCC(=O)O[C@H](C(=O)N[C@@H](C)C(=O)N1CCC[C@@H](C(=O)N[C@H](C)c2cccc(C=C)c2)N1)C(C)C, rcm bond, Hoveyda-Grubbs 2nd generation catalyst, 1,2-dichloroethane, 80.0 °C, 2.3 h): 15% |
| CC(C)[C@H]1C(=O)N[C@@H](C)C(=O)N2CCC[C@H](N2)C(=O)N[C@H](C)c2cccc(c2)/C=C/CCCCC(=O)N1C [Compound 17, (E)-(2R,5S,11 S,14S)-14-Isopropyl-2,11,15-trimethyl-3,9,12,15,28-pentaaza-tricyclo[21.3.1.1*5,9*]octacosa-1 (27),21,23,25-tetraene-4,10,13,16-tetraone] | 101 to 1000 | 1100 to 10000 | 39 | ring closure, yield of all isomers (from C=CCCCCC(=O)N(C)[C@H](C(=O)N[C@@H](C)C(=O)N1CCC[C@@H](C(=O)N[C@H](C)c2cccc(C=C)c2)N1)C(C)C, rcm bond, Hoveyda-Grubbs 2nd generation catalyst, 1,2-dichloroethane, 3.33 mM, 80.0 °C, 3.0 h): 43% |
| CC(C)[C@@H]1OC(=O)[C@H](C)C=Cc2cc3cc(ccc3cn2)[C@@H](C)NC(=O)[C@@H]2CCCN(N2)C(=O)[C@H](C)NC1=O | – | – | – | ring closure, yield of all isomers (from C=Cc1cc2cc([C@@H](C)NC(=O)[C@@H]3CCCN(C(=O)[C@H](C)NC(=O)[C@@H](OC(=O)[C@H](C)/C=C/C)C(C)C)N3)ccc2cn1, rcm bond, Hoveyda-Grubbs 2nd generation, toluene, 2.99 mM, 125.0 °C, 5.75 h): 1% |
| C[C@@H]1NC(=O)[C@H](CC(F)F)OC(=O)C(C)(C)/C=C/c2ccc3ccc(nc3c2)[C@@H](C)NC(=O)[C@@H]2CCCN(N2)C1=O [Compound 62] | < 100 | < 1000 | 84 | – |
| CC(C)[C@@H]1NS(=O)(=O)C/C=C/c2cc3cc(ccc3cn2)[C@@H](C)OC(=O)[C@@H]2CCCN(N2)C(=O)[C@H](C)NC1=O [Compound 21] | 101 to 1000 | < 1000 | 71 | – |
| CO[C@H](C)[C@@H]1OC(=O)C(C)(C)/C=C/c2ccc3ccc(nc3c2)[C@@H](C)NC(=O)[C@@H]2CCCN(N2)C(=O)[C@H](C)NC1=O [Compound 60] | < 100 | < 1000 | 96 | – |
| CC(C)[C@@H]1OC(=O)[C@@](C)(COC(F)(F)F)/C=C/c2ccc3ccc(nc3c2)[C@@H](C)NC(=O)[C@@H]2CCCN(N2)C(=O)[C@H](C)NC1=O [Compound 56] | < 100 | < 1000 | 99 | – |
| CC(C)[C@@H]1N[C@H](C(F)(F)F)C(C)(C)/C=C/c2ccc3ccc(nc3c2)[C@@H](C)OC(=O)[C@@H]2CCCN(N2)C(=O)[C@H](C)NC1=O [Compound 31] | < 100 | < 1000 | 88 | – |
| CC(C)[C@@H]1OC(=O)C2(/C=C/c3ccc4ccc(nc4c3)[C@@H](C)NC(=O)[C@@H]3CCCN(N3)C(=O)[C@H](C)NC1=O)CCC(C)(O)CC2 (stereo partly drawn) [Compound 89] | < 100 | < 1000 | 82 | – |
| CC(=O)O[C@H]1CC[C@@]2(/C=C/c3ccc4ccc(nc4c3)[C@@H](C)NC(=O)[C@@H]3CCCN(N3)C(=O)[C@H](C)NC(=O)[C@H](C(C)C)OC2=O)CC1 [Compound 110] | < 100 | < 1000 | 100 | – |
| CC1/C=C/c2ccc3ccc(nc3c2)[C@@H](C)NC(=O)[C@@H]2CCCN(N2)C(=O)[C@H](C)NC(=O)[C@H](C(C)C)OC1 (single isomer, unassigned) [Compound 35] | < 100 | < 1000 | 88 | – |
| CC(C)[C@@H]1OC(=O)[C@]2(/C=C/c3ccc4ccc(nc4c3)[C@@H](C)N(C)C(=O)[C@@H]3CCCN(N3)C(=O)[C@H](C)NC1=O)CC[C@H](O)CC2 [Compound 42] | < 100 | < 1000 | 96 | – |
| CCCC(=O)O[C@H]1CC[C@@]2(/C=C/c3ccc4ccc(nc4c3)[C@@H](C)NC(=O)[C@@H]3CCCN(N3)C(=O)[C@H](C)NC(=O)[C@H](C(C)C)OC2=O)CC1 [Compound 108] | < 100 | < 1000 | 99 | – |
| C[C@@H]1NC(=O)[C@H](C(C)(C)F)OC(=O)C2(/C=C/c3ccc4ccc(nc4c3)[C@@H](C)NC(=O)[C@@H]3CCCN(N3)C1=O)COCOC2 [Compound 72] | 1000 to 10000 | 1100 to 10000 | -6 | – |
